Source: ChEMBL document CHEMBL3885881, “DrugMatrix”

Organism: Rattus norvegicus
Assay: DrugMatrix - Regimen: Daily Repeat
Assay type: toxicity, organism-based, Sprague-Dawley
Set-up: regimen Daily Repeat, gender Male, age 6-8 weeks
Conditions: in vivo, po, 0 mg/kg, route oral GAVAGE, dose level Control, vehicle .5 % CMC; for BASOPHIL / EOSINOPHIL / ERYTHROCYTE COUNT / HEMATOCRIT / HEMOGLOBIN / LEUKOCYTE COUNT / LYMPHOCYTE / MEAN CORPUSCULAR HEMOGLOBIN / MEAN CORPUSCULAR HEMOGLOBIN CONCENTRATION / MEAN CORPUSCULAR VOLUME / MONOCYTE / NEUTROPHIL / PLATELET COUNT: tissue Blood; for ALANINE AMINOTRANSFERASE / ALBUMIN / ALKALINE PHOSPHATASE / ASPARTATE AMINOTRANSFERASE / BLOOD UREA NITROGEN / CARBON DIOXIDE / CHLORIDE / CHOLESTEROL / CREATINE PHOSPHOKINASE / CREATININE / GLUCOSE / LACTATE DEHYDROGENASE / LIPASE / PHOSPHORUS / POTASSIUM / SODIUM / TOTAL BILIRUBIN / TOTAL PROTEIN / URIC ACID: tissue Plasma

In the case of `O=[N+]([O-])c1ccccc1` [NITROBENZENE], the BASOPHIL (72 h, time 3 day) is reported as 0.62%, the EOSINOPHIL (72 h, time 3 day) is reported as 0.52% and the “ERYTHROCYTE COUNT” value (72 h, time 3 day) is reported as 6.33 x10E6/uL. The HEMATOCRIT (72 h, time 3 day) was 41.88%, the HEMOGLOBIN (72 h, time 3 day) was 13.52 G/DL and the “LEUKOCYTE COUNT” value (72 h, time 3 day) was 11.39 x10E3/uL. For the same compound, the LYMPHOCYTE (72 h, time 3 day) was 86.18%, the “MEAN CORPUSCULAR HEMOGLOBIN” value (72 h, time 3 day) was 21.35 pg and the “MEAN CORPUSCULAR HEMOGLOBIN CONCENTRATION” value (72 h, time 3 day) was 32.23 G/DL. The “MEAN CORPUSCULAR VOLUME” value (72 h, time 3 day) was 66.25 fL, the MONOCYTE (72 h, time 3 day) was 1.93% and the NEUTROPHIL (72 h, time 3 day) was 9.1%. The “PLATELET COUNT” value (72 h, time 3 day) was 1204.5 x10E3/uL, the “ALANINE AMINOTRANSFERASE” value (72 h, time 3 day) was 43 u/L and the ALBUMIN (72 h, time 3 day) was 4.08 G/DL. The “ALKALINE PHOSPHATASE” value (72 h, time 3 day) was 426.33 u/L, the “ASPARTATE AMINOTRANSFERASE” value (72 h, time 3 day) was 72.5 u/L and the “BLOOD UREA NITROGEN” value (72 h, time 3 day) was 16.67 mg/dL. For the same compound, the “CARBON DIOXIDE” value (72 h, time 3 day) was 28.33 mmol/L, the CHLORIDE (72 h, time 3 day) was 103.5 MEQ/L and the CHOLESTEROL (72 h, time 3 day) was 78.83 mg/dL. The “CREATINE PHOSPHOKINASE” value (72 h, time 3 day) was 325.67 u/L, the CREATININE (72 h, time 3 day) was 0.48 mg/dL and the GLUCOSE (72 h, time 3 day) was 171.67 mg/dL. The “LACTATE DEHYDROGENASE” value (72 h, time 3 day) was 107.33 u/L, the LIPASE (72 h, time 3 day) was 11.83 u/L and the PHOSPHORUS (72 h, time 3 day) was 12.55 mg/dL. The POTASSIUM (72 h, time 3 day) was 6.57 MEQ/L, the SODIUM (72 h, time 3 day) was 145.67 MEQ/L and the “TOTAL BILIRUBIN” value (72 h, time 3 day) was 0.42 mg/dL. For the same compound, the “TOTAL PROTEIN” value (72 h, time 3 day) was 6.1 G/DL, the “URIC ACID” value (72 h, time 3 day) was 1.57 mg/dL and the BASOPHIL (120 h, time 5 day) was 0.48%. For the same compound, the EOSINOPHIL (120 h, time 5 day) was 0.67%, the “ERYTHROCYTE COUNT” value (120 h, time 5 day) was 6.69 x10E6/uL and the HEMATOCRIT (120 h, time 5 day) was 44.17%. The HEMOGLOBIN (120 h, time 5 day) was 13.78 G/DL, the “LEUKOCYTE COUNT” value (120 h, time 5 day) was 7.86 x10E3/uL and the LYMPHOCYTE (120 h, time 5 day) was 85.9%. For the same compound, the “MEAN CORPUSCULAR HEMOGLOBIN” value (120 h, time 5 day) was 20.6 pg, the “MEAN CORPUSCULAR HEMOGLOBIN CONCENTRATION” value (120 h, time 5 day) was 31.25 G/DL and the “MEAN CORPUSCULAR VOLUME” value (120 h, time 5 day) was 65.9 fL. The MONOCYTE (120 h, time 5 day) was 3.27%, the NEUTROPHIL (120 h, time 5 day) was 8.67% and the “PLATELET COUNT” value (120 h, time 5 day) was 1182.33 x10E3/uL. The “ALANINE AMINOTRANSFERASE” value (120 h, time 5 day) was 37.5 u/L, the ALBUMIN (120 h, time 5 day) was 4 G/DL and the “ALKALINE PHOSPHATASE” value (120 h, time 5 day) was 348.17 u/L. The “ASPARTATE AMINOTRANSFERASE” value (120 h, time 5 day) was 71.67 u/L, the “BLOOD UREA NITROGEN” value (120 h, time 5 day) was 13 mg/dL and the “CARBON DIOXIDE” value (120 h, time 5 day) was 27 mmol/L. For the same compound, the CHLORIDE (120 h, time 5 day) was 104.67 MEQ/L, the CHOLESTEROL (120 h, time 5 day) was 73.33 mg/dL and the “CREATINE PHOSPHOKINASE” value (120 h, time 5 day) was 211.33 u/L. For the same compound, the CREATININE (120 h, time 5 day) was 0.23 mg/dL, the GLUCOSE (120 h, time 5 day) was 155 mg/dL and the “LACTATE DEHYDROGENASE” value (120 h, time 5 day) was 133.83 u/L. For the same compound, the LIPASE (120 h, time 5 day) was 11.17 u/L, the PHOSPHORUS (120 h, time 5 day) was 14.53 mg/dL and the POTASSIUM (120 h, time 5 day) was 6.65 MEQ/L. The SODIUM (120 h, time 5 day) was 148.17 MEQ/L, the “TOTAL BILIRUBIN” value (120 h, time 5 day) was 0.28 mg/dL and the “TOTAL PROTEIN” value (120 h, time 5 day) was 6.22 G/DL. The “URIC ACID” value (120 h, time 5 day) was 1.57 mg/dL, the BASOPHIL ([…], time 14 day) was 0.97% and the EOSINOPHIL ([…], time 14 day) was 0.8%. For the same compound, the “ERYTHROCYTE COUNT” value ([…], time 14 day) was 7.02 x10E6/uL, the HEMATOCRIT ([…], time 14 day) was 44.43% and the HEMOGLOBIN ([…], time 14 day) was 14.58 G/DL. The “LEUKOCYTE COUNT” value ([…], time 14 day) was 16.49 x10E3/uL, the LYMPHOCYTE ([…], time 14 day) was 79.03% and the “MEAN CORPUSCULAR HEMOGLOBIN” value ([…], time 14 day) was 20.85 pg. The “MEAN CORPUSCULAR HEMOGLOBIN CONCENTRATION” value ([…], time 14 day) was 32.78 G/DL, the “MEAN CORPUSCULAR VOLUME” value ([…], time 14 day) was 63.57 fL and the MONOCYTE ([…], time 14 day) was 1.9%. For the same compound, the NEUTROPHIL ([…], time 14 day) was 15.18%, the “PLATELET COUNT” value ([…], time 14 day) was 1184.33 x10E3/uL and the “ALANINE AMINOTRANSFERASE” value ([…], time 14 day) was 43 u/L. For the same compound, the ALBUMIN ([…], time 14 day) was 4.25 G/DL, the “ALKALINE PHOSPHATASE” value ([…], time 14 day) was 409.67 u/L and the “ASPARTATE AMINOTRANSFERASE” value ([…], time 14 day) was 84.17 u/L. For the same compound, the “BLOOD UREA NITROGEN” value ([…], time 14 day) was 16 mg/dL, the “CARBON DIOXIDE” value ([…], time 14 day) was 35.17 mmol/L and the CHLORIDE ([…], time 14 day) was 99.83 MEQ/L. For the same compound, the CHOLESTEROL ([…], time 14 day) was 68.67 mg/dL, the “CREATINE PHOSPHOKINASE” value ([…], time 14 day) was 384.17 u/L and the CREATININE ([…], time 14 day) was 0.43 mg/dL. For the same compound, the GLUCOSE ([…], time 14 day) was 160 mg/dL, the “LACTATE DEHYDROGENASE” value ([…], time 14 day) was 115.33 u/L and the LIPASE ([…], time 14 day) was 17.33 u/L. The PHOSPHORUS ([…], time 14 day) was 10.68 mg/dL, the POTASSIUM ([…], time 14 day) was 6.48 MEQ/L and the SODIUM ([…], time 14 day) was 148.17 MEQ/L. The “TOTAL BILIRUBIN” value ([…], time 14 day) was 0.45 mg/dL, the “TOTAL PROTEIN” value ([…], time 14 day) was 6.57 G/DL and the “URIC ACID” value ([…], time 14 day) was 1.78 mg/dL.
